Results on 30 compounds are retold here after patent US7951802B2, “Use of 7-azaindoles in the inhibition of c-Jun N-terminal kinase” (Eisai R&D Management Co., Ltd., priority 2007, dated 2011).

The experiment has as its target JNK3 (Homo sapiens, UniProt P53779). The experiment in a line: JNK3 SPA assay (phosphorylation of GST-c-Jun). Format: biochemical. The conditions noted are these: 3.33 μM ATP, GST-c-Jun substrate, read-out: IC50 against JNK3. The protocol: JNK1, JNK2, JNK3—SPA Assay
JNK1, JNK2, JNK3—SPA Assay • 1. Compound is dissolved in DMSO to a convenient concentration and this is diluted in 10% DMSO to a five times concentrate of the desired starting concentration (frequently 1:100). • 2. 10 μl of 500 mM EDTA is added to alternative wells of the Opti-plate row, which will receive kinase reaction plus DMSO. This creates the negative control. • 3. For the JNK2 and JNK3 assay, compounds are prepared in six 2-fold dilutions with water and each concentration is tested in duplicate. For the JNK1 assay compounds are prepared in four 5-fold dilutions with water which are tested in triplicate. Controls are treated identically. • 4. 20 μl per well of each compound concentration is transferred to an Opti-plate, in duplicate. • 5. 30 μl (JNK2/3 SPA) or 50 μl (JNK1 SPA) of substrate solution (25 mM HEPES pH 7.5, 10 mM magnesium acetate with 3.33 μM ATP (JNK2/3) or 2 μM ATP (JNK1), approximately 7.5 kBq [γ-^33P] ATP, GST-c-Jun, in water) is added to each well. • 6. 50 μl (JNK2/3 SPA) or 30 μl (JNK1 SPA) of kinase solution (JNK in 25 mM HEPES pH 7.5, 10 mM Mg Acetate) is added to each well.
• 7. The plate is incubated for 30 minutes at room temperature. • 8. 100 μl of bead/stop solution is added to each well (5 mg/ml glutathione-PVT-SPA beads, 40 mM ATP in PBS). • 9. Plates are sealed and incubated for 30 minutes at room temperature, centrifuged for 10 minutes at 2500 g and counted. • 10. The IC50 values are calculated as the concentration of the compound being tested at which the phosphorylation of c-Jun is decreased to 50% of the control value.

pIC50: −log10 of the molar value. Where only a bound is given, the exact number is not on record here.

Chain of JNK3 (P53779 whole entry, species assumed): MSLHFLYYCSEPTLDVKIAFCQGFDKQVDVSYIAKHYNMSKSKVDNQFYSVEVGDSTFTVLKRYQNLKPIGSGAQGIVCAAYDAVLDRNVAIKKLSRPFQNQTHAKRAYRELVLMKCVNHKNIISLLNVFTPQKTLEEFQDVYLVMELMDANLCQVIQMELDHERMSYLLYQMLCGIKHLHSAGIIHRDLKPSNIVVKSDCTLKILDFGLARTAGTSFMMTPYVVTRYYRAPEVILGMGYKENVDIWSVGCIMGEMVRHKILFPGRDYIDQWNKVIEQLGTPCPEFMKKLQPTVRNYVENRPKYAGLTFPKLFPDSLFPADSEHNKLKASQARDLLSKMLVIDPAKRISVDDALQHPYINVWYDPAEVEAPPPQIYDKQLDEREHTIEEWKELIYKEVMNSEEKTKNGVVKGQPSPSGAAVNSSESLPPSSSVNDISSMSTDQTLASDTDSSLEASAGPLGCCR

Regarding `CN1CCCC1c1nc(-c2c[nH]c3ncc([C@H]4CC[C@H](N5CCCC5)CC4)cc23)cs1` (stereo partly drawn) [Compound I-111, 2-(1-methylpyrrolidin-2-yl)-4-(5-((1r,4r)-4-(pyrrolidin-1-yl)cyclohexyl)-1H-pyrrolo[2,3-b]pyridin-3-yl)thiazole], the pIC50 – broadly, −log10 of the IC50, conventionally taken in molar units – was 5.76.
As for `Cc1csc(-c2c[nH]c3ncc([C@H]4CC[C@H](N5CCOCC5)CC4)cc23)n1` [Compound I-61, 4-((1r,4r)-4-(3-(4-methylthiazol-2-yl)-1H-pyrrolo[2,3-b]pyridin-5-yl)cyclohexyl)morpholine], the figure is 6.24; as for `CN1CCN([C@H]2CC[C@H](c3cnc4[nH]cc(-c5nc(C(F)(F)F)cs5)c4c3)CC2)CC1` [Compound I-82, 2-(5-((1r,4r)-4-(4-methylpiperazin-1-yl)cyclohexyl)-1H-pyrrolo[2,3-b]pyridin-3-yl)-4-(trifluoromethyl)thiazole], 6.57.
Under `CN1CCC(c2nc(-c3c[nH]c4ncc([C@H]5CC[C@H](N6CCOCC6)CC5)cc34)cs2)CC1` [Compound I-94, 4-((1r,4r)-4-(3-(2-(1-methylpiperidin-4-yl)thiazol-4-yl)-1H-pyrrolo[2,3-b]pyridin-5-yl)cyclohexyl)morpholine] stands 6.16; under `CC1CCC(c2cnc3[nH]cc(-c4csc(C(=O)N5CCN(C)CC5)n4)c3c2)CC1` (stereo not drawn) [Compound I-22, {4-[5-(4-Methyl-cyclohexyl)-1H-pyrrolo[2,3-b]pyridin-3-yl]-thiazol-2-yl}-(4-methyl-piperazin-1-yl)-methanone], 7.80.
In the case of `CC1CCC(c2cnc3[nH]cc(-c4csc(C(=O)N(C)C)n4)c3c2)CC1` (stereo not drawn) [Compound I-19, 4-[5-(4-Methyl-cyclohexyl)-1H-pyrrolo[2,3-b]pyridin-3-yl]-thiazole-2-carboxylic acid dimethylamide], the pIC50 was 6.93.
Under `CC1CCC(c2cnc3[nH]cc(-c4csc(C(=O)N5CCCCC5)n4)c3c2)CC1` (stereo not drawn) [Compound I-20, {4-[5-(4-Methyl-cyclohexyl)-1H-pyrrolo[2,3-b]pyridin-3-yl]-thiazol-2-yl}-piperidin-1-yl-methanone] stands 6.86; under `FC(F)(F)c1csc(-c2c[nH]c3ncc([C@H]4CC[C@@H](N5CCOCC5)CC4)cc23)n1` [Compound I-70, 4-((1s,4s)-4-(3-(4-(trifluoromethyl)thiazol-2-yl)-1H-pyrrolo[2,3-b]pyridin-5-yl)cyclohexyl)morpholine], 5.96.
Under `CN1CCN([C@H]2CC[C@@H](c3cnc4[nH]cc(-c5csc(C6CCCN6C)n5)c4c3)CC2)CC1` (stereo partly drawn) [Compound I-110, 4-(5-((1s,4s)-4-(4-methylpiperazin-1-yl)cyclohexyl)-1H-pyrrolo[2,3-b]pyridin-3-yl)-2-(1-methylpyrrolidin-2-yl)thiazole] stands less than 5.70; under `CN1CCC(c2nc(-c3c[nH]c4ncc([C@H]5CC[C@H](N6CCCOCC6)CC5)cc34)cs2)CC1` [Compound I-102, 4-((1r,4r)-4-(3-(2-(1-methylpiperidin-4-yl)thiazol-4-yl)-1H-pyrrolo[2,3-b]pyridin-5-yl)cyclohexyl)-1,4-oxazepane], 6.26; under `FC(F)(F)c1csc(-c2c[nH]c3ncc([C@H]4CC[C@@H](N5CCCC5)CC4)cc23)n1` [Compound I-85, 2-(5-((1s,4s)-4-(pyrrolidin-1-yl)cyclohexyl)-1H-pyrrolo[2,3-b]pyridin-3-yl)-4-(trifluoromethyl)thiazole], 5.74.
Consider `CN1CCC(c2nc(-c3c[nH]c4ncc(C5=CCCC5)cc34)cs2)CC1` [Compound I-1, 5-Cyclopent-1-enyl-3-[2-(1-methyl-piperidin-4-yl)-thiazol-4-yl]-1H-pyrrolo[2,3-b]pyridine], for which the negative-log IC50 (pIC50) is 6.36.
Consider `Cc1nc(-c2c[nH]c3ncc([C@H]4CC[C@H](N5CCCC5)CC4)cc23)cs1` [Compound I-74, 2-methyl-4-(5-((1r,4r)-4-(pyrrolidin-1-yl)cyclohexyl)-1H-pyrrolo[2,3-b]pyridin-3-yl)thiazole], for which the pIC50 was 5.48.
For the compound `c1nc(-c2c[nH]c3ncc([C@H]4CC[C@H](N5CCCOCC5)CC4)cc23)cs1` [Compound I-116, 4-((1r,4r)-4-(3-(thiazol-4-yl)-1H-pyrrolo[2,3-b]pyridin-5-yl)cyclohexyl)-1,4-oxazepane], the pIC50 was less than 5.70.
As to `CN1CCC(c2nc(-c3c[nH]c4ncc(C5CCC6(CC5)OCCO6)cc34)cs2)CC1` [Compound I-23, 5-(1,4-Dioxa-spiro[4.5]dec-8-yl)-3-[2-(1-methyl-piperidin-4-yl)-thiazol-4-yl]-1H-pyrrolo[2,3-b]pyridine], the pIC50 is 6.14.
Under `O=C(c1nc(-c2c[nH]c3ncc(C4CCCCC4)cc23)cs1)N1CCCCC1` [Compound I-7, [4-(5-Cyclohexyl-1H-pyrrolo[2,3-b]pyridin-3-yl)-thiazol-2-yl]-piperidin-1-yl-methanone] stands 6.62.
Under `Cc1nc(-c2c[nH]c3ncc([C@H]4CC[C@@H](N5CCN(C)CC5)CC4)cc23)cs1` [Compound I-92, 2-methyl-4-(5-((1s,4s)-4-(4-methylpiperazin-1-yl)cyclohexyl)-1H-pyrrolo[2,3-b]pyridin-3-yl)thiazole] stands less than 6.00; under `c1ncc(-c2c[nH]c3ncc([C@H]4CC[C@H](N5CCOCC5)CC4)cc23)s1` [Compound I-60, 4-((1r,4r)-4-(3-(thiazol-5-yl)-1H-pyrrolo[2,3-b]pyridin-5-yl)cyclohexyl)morpholine], 6.96; under `CN1CCN(C(=O)c2nc(-c3c[nH]c4ncc([C@H]5CC[C@@H](N6CCOCC6)CC5)cc34)cs2)CC1` [Compound I-32, (4-methylpiperazin-1-yl)(4-(5-((1s,4s)-4-morpholinocyclohexyl)-1H-pyrrolo[2,3-b]pyridin-3-yl)thiazol-2-yl)methanone], 6.02.
As for `C1=C(c2cnc3[nH]cc(-c4nccs4)c3c2)CCCC1` [Compound I-24, 2-(5-cyclohexenyl-1H-pyrrolo[2,3-b]pyridin-3-yl)thiazole], the figure is 6.64; as for `Cc1nc(-c2c[nH]c3ncc([C@H]4CC[C@H](N5CCCOCC5)CC4)cc23)cs1` [Compound I-75, 4-((1r,4r)-4-(3-(2-methylthiazol-4-yl)-1H-pyrrolo[2,3-b]pyridin-5-yl)cyclohexyl)-1,4-oxazepane], less than 6.00.
Take `CC1CC=C(c2cnc3[nH]cc(-c4csc(C(=O)N5CCN(C)CC5)n4)c3c2)CC1` (stereo not drawn) [Compound I-14, {4-[5-(4-Methyl-cyclohex-1-enyl)-1H-pyrrolo[2,3-b]pyridin-3-yl]-thiazol-2-yl}-(4-methyl-piperazin-1-yl)-methanone]: the pIC50 is 6.98.
Under `Cc1nc(-c2c[nH]c3ncc(C4CCCCC4)cc23)cs1` [Compound I-58, 4-(5-cyclohexyl-1H-pyrrolo[2,3-b]pyridin-3-yl)-2-methylthiazole] stands less than 5.70; under `CCOc1nc(-c2c[nH]c3ncc([C@H]4CC[C@H](N5CCOCC5)CC4)cc23)cs1` [Compound I-63, 4-((1r,4r)-4-(3-(2-ethoxythiazol-4-yl)-1H-pyrrolo[2,3-b]pyridin-5-yl)cyclohexyl)morpholine], 6.52.
Consider `O=C(c1nc(-c2c[nH]c3ncc([C@H]4CC[C@@H](N5CCOCC5)CC4)cc23)cs1)N1CCOCC1` [Compound I-31, morpholino(4-(5-((1s,4s)-4-morpholinocyclohexyl)-1H-pyrrolo[2,3-b]pyridin-3-yl)thiazol-2-yl)methanone], for which the pIC50 is 5.88.
Under `O=C(c1nc(-c2c[nH]c3ncc(C4CCCCC4)cc23)cs1)N1CCOCC1` [Compound I-8, [4-(5-Cyclohexyl-1H-pyrrolo[2,3-b]pyridin-3-yl)-thiazol-2-yl]-morpholin-4-yl-methanone] stands 6.95; under `O=C(c1nc(-c2c[nH]c3ncc([C@H]4CC[C@H](N5CCOCC5)CC4)cc23)cs1)N1CCOCC1` [Compound I-34, morpholino(4-(5-((1r,4r)-4-morpholinocyclohexyl)-1H-pyrrolo[2,3-b]pyridin-3-yl)thiazol-2-yl)methanone], 6.79; under `CN1CCC(c2nc(-c3c[nH]c4ncc(C5=CCC(N6CCCOCC6)CC5)cc34)cs2)CC1` (stereo not drawn) [Compound I-101, 4-(4-(3-(2-(1-methylpiperidin-4-yl)thiazol-4-yl)-1H-pyrrolo[2,3-b]pyridin-5-yl)cyclohex-3-enyl)-1,4-oxazepane], 6.44.
As for `Cc1cnc(-c2c[nH]c3ncc([C@H]4CC[C@H](N5CCCOCC5)CC4)cc23)s1` [Compound I-121, 3-(5-methyl-1,3-thiazol-2-yl)-5-[trans-4-(1,4-oxazepan-4-yl)cyclohexyl]-1H-pyrrolo[2,3-b]pyridine], the figure is 5.84; as for `CN1CCN([C@H]2CC[C@@H](c3cnc4[nH]cc(-c5nc(C(F)(F)F)cs5)c4c3)CC2)CC1` [Compound I-83, 2-(5-((1s,4s)-4-(4-methylpiperazin-1-yl)cyclohexyl)-1H-pyrrolo[2,3-b]pyridin-3-yl)-4-(trifluoromethyl)thiazole], 6.22.
